Legend:
Test in all cases: relative viability (nuclei count vs DMSO), 5 days (fraction); higher = more cells survive
[1] = compound: Cn1cc(-c2cnn3c(N)c(Br)c([C@@H]4CCCNC4)nc23)cn1 + N=C(N)NC(=N)NCCc1ccccc1 [Phenformin] (partner 250 µM)
In short: (§1)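 Lung cancer cell lines were seeded in 1536-well plates and dosed by pin tool the next day, with either a single drug or a fixed anchor-drug dose combined with five library-drug doses (not always all listed) spaced in √10 steps. Five days later, one step fixed the cells and stained their nuclei (final 0.05% Triton X-100, 1% formaldehyde, 1 ug/ml Hoechst), and nuclei were counted on 4× images. Relative viability is the nuclei count in treated wells divided by the count in vehicle wells, and each value is the median of duplicate plates.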

[2] = compound: Cn1cc(-c2cnn3c(N)c(Br)c([C@@H]4CCCNC4)nc23)cn1 + C[C@@H](Oc1cc(-c2cnn(C3CCNCC3)c2)cnc1N)c1c(Cl)ccc(F)c1Cl [Crizotinib] (partner 1 µM)
In short: as §1

[3] = compound: Cn1cc(-c2cnn3c(N)c(Br)c([C@@H]4CCCNC4)nc23)cn1 + COc1cccc2cc(-c3nc([C@H]4CC[C@H](C(=O)O)CC4)n4ncnc(N)c34)[nH]c12 [OSI-027] (partner 0.5 µM)
In short: as §1

[4] = compound: Cn1cc(-c2cnn3c(N)c(Br)c([C@@H]4CCCNC4)nc23)cn1 + CC(=O)Nc1cccc(-n2c(=O)n(C3CC3)c(=O)c3c(Nc4ccc(I)cc4F)n(C)c(=O)c(C)c32)c1 [Trametinib] (partner 0.02 µM)
In short: as §1

Cell Line	relative viability ([1]; first compound 0.05 µM)	relative viability ([1]; first compound 0.1581 µM)	relative viability ([1]; first compound 0.5 µM)	relative viability ([1]; first compound 1.581 µM)	relative viability ([1]; first compound 5 µM)	relative viability ([2]; first compound 0.05 µM)	relative viability ([2]; first compound 0.1581 µM)	relative viability ([2]; first compound 0.5 µM)	relative viability ([2]; first compound 1.581 µM)	relative viability ([2]; first compound 5 µM)	relative viability ([3]; first compound 0.05 µM)	relative viability ([3]; first compound 0.1581 µM)	relative viability ([3]; first compound 0.5 µM)	relative viability ([3]; first compound 1.581 µM)	relative viability ([3]; first compound 5 µM)	relative viability ([4]; first compound 0.05 µM)	relative viability ([4]; first compound 0.1581 µM)	relative viability ([4]; first compound 0.5 µM)	relative viability ([4]; first compound 1.581 µM)	relative viability ([4]; first compound 5 µM)
NCI-H3122	0.374	0.62	0.383	0.366	0.383	0.305	0.275	0.255	0.273	0.263	1.26	1.06	0.987	0.543	0.929	0.267	0.236	0.212	0.223	0.257
PC-3 [JPC-3]	0.444	0.476	0.443	0.448	0.455	1	1.01	1.02	0.835	1.12	0.717	0.918	0.804	0.702	0.847	0.693	0.705	–	0.642	0.608
PC-14	0.515	0.429	0.668	0.388	0.211	0.95	1.06	1.01	0.83	0.386	1.02	0.83	0.638	0.248	0.206	0.816	0.929	0.581	0.337	0.272
RERF-LC-KJ	0.41	0.46	0.41	0.408	0.412	0.828	0.958	0.775	0.788	0.8	0.639	0.543	0.535	0.527	0.511	0.88	0.839	0.835	0.8	0.657
SK-LU-1	0.515	0.426	0.299	0.254	0.184	0.877	–	0.483	0.33	0.264	0.39	0.279	0.237	0.248	0.183	0.616	0.423	0.422	0.328	0.292
SK-MES-1	0.664	0.735	0.663	0.419	0.188	1.07	1.11	0.918	0.934	0.366	0.621	0.562	0.416	0.244	0.16	0.595	0.567	0.607	0.346	0.222
SW 1573	0.388	0.381	0.325	0.215	0.219	0.794	1.07	0.9	0.747	0.73	0.547	0.745	0.606	0.505	0.465	0.538	0.642	0.558	0.506	0.516
UMC-11	0.337	0.309	0.32	0.305	0.274	0.736	0.504	0.623	0.392	0.262	0.495	0.427	0.438	0.267	0.279	0.753	0.684	0.502	0.579	0.402

Reference: the supplement of paper PMC10307832
